Results: patent US20060074131A1, “Novel crystalline polymorph of venlafaxine hydrochloride and methods for the preparation thereof” (Wyeth, priority 2001, published 2006)
Structures can show the parent of a compound that is named as a salt.

Assays:
[1] = Intrinsic dissolution rate (USP 23 section 711, apparatus 2, compressed pellets in water); assay type: physicochemical; settings: 900 mL water, 37° C., 100 rpm, pellet with exposed surface area 0.5 cm^2, UV 220 nm
Protocol: The intrinsic dissolution rates of Form II and the crystalline polymorph of the present invention were determined as follows. Pellets of venlafaxine hydrochloride were prepared by compressing 100 mg of each material in a die (Wood's apparatus) at 1000 psi for 1 minute with a Carver press. […] The dissolution rate in 900 mL of water was determined by USP 23 (1995), section 711, page 1791 (Dissolution, apparatus 2), with a rotation speed of 100 rpm at 37° C. The dissolution media was circulated through a 1.0 cm path microflow cell at a flow rate of 10 mL/minute. Ultraviolet absorbance was recorded at 220 nm.

[2] = Thermogravimetric analysis (TGA); assay type: physicochemical; settings: heated from 28 to 238° C. at 10° C./minute under nitrogen purge
Protocol: A sample of the venlafaxine hydrochloride crystalline polymorph of the present invention was heated from 28 to 238° C. at a scan rate of 10° C./minute in a Pyris I TGA, available from Perkin-Elmer of Shelton, Conn., under a nitrogen purge.

[3] = tested on: histaminergic receptors; settings: in vitro; cited from earlier work
[4] = tested on: adrenergic receptors; settings: in vitro; cited from earlier work
[5] = tested on: monoamine oxidase; settings: cited from earlier work
[6] = tested on: muscaranic receptors; settings: in vitro; cited from earlier work

COc1ccc(C(CN(C)C)C2(O)CCCCC2)cc1 (stereo not drawn) [Form II, venlafaxine hydrochloride]
intrinsic dissolution rate [1]: 24.7 mg/cm^2-minute

COc1ccc(C(CN(C)C)C2(O)CCCCC2)cc1 (stereo not drawn) [venlafaxine hydrochloride]
weight loss on heating (TGA) [2]: lost little weight until it was heated near the melting point

COc1ccc(C(CN(C)C)C2(O)CCCCC2)cc1 (stereo not drawn) [venlafaxine, 1-[2-(dimethylamino)-1-(4-methoxyphenyl)ethyl]cyclohexanol]
affinity for histaminergic receptors [3]: virtually no affinity | affinity for adrenergic receptors [4]: virtually no affinity | inhibitory activity on monoamine oxidase [5]: no inhibitory activity | affinity for muscaranic receptors [6]: virtually no affinity
